Test results from article PMC12566520, “Targeted Modification of the Antimicrobial Peptide DGL13K Reveals a Naturally Optimized Sequence for Topical Applications” (Microorganisms, 2025).
Like-named read-outs stand apart in the source and are kept apart here. Square brackets hold non-standard residues; d marks the D form. Ends that are not written are not given here. Peptide text beside a SMILES is read from it. d(aIle) = CC[C@H](C)[C@@H](N)C(=O)O; aIle = CC[C@@H](C)[C@H](N)C(=O)O

Legend:
[1] = tested on: Staphylococcus aureus Xen36; format: cell-based; details: for Antibacterial activity against S. aureus compared with unmodified peptide (in words): MIC assay; for MIC S. aureus: overnight 37 °C, OD630
Experimental: (§1) Pseudomonas aeruginosa Xen41 and Staphylococcus aureus Xen36 were obtained from Xenogen (Alameda, CA; now Revvity, Waltham, MA, USA) and Revvity, respectively, and stored at −80 °C in 10% glycerol. P. aeruginosa were cultured in Luria-Bertani broth while S. aureus were cultured in Todd-Hewitt Broth (Difco, Franklin Lakes, NJ, USA) overnight at 37 °C and shaking at 200 rpm. Cultures typically reached an optical density at 600 nm of 1.7 for P. aeruginosa and 1.3 for S. aureus.
(§2) MIC assays were performed as previously described. Briefly, overnight cultures of P. aeruginosa Xen41 were diluted to 10^5 CFU/mL in Mueller-Hinton Broth (Difco) while S. aureus Xen36 were similarly diluted in Todd-Hewitt Broth. Bacteria (100 µL) were added to 20 µL of 2-fold peptide dilutions in 10% PBS in 96-well polypropylene culture plates. The plates were incubated overnight at 37 °C with gentle rocking and then the optical density at 630 nm (OD630) was recorded in a BioTek Synergy HT plate reader (BioTek, Winooski, VT, USA; now Agilent, Santa Clara, CA, USA). Bioluminescence was recorded for quality control of the bioluminescent bacteria.

[2] = tested on: Pseudomonas aeruginosa Xen41; format: cell-based; details: for MIC P. aeruginosa: overnight 37 °C, OD630
Experimental: as §1, §2

human red blood cells = details: cited from earlier work
From the text: The selective activity of many AMPs exploits the compositional differences between prokaryotic and eukaryotic membranes to avoid mammalian cell toxicity. The selectivity of AMPs is typically determined as the ratio between the hemolytic concentration and the MIC of the AMP (therapeutic index). One measure of the hemolytic activity is the peptide concentration leading to 50% lysis of red blood cells (HC50 = hemolytic concentration 50). This assay is routinely used for screening purposes and the lack of red cell toxicity is an important consideration for IV delivery of an AMP. ...

P. aeruginosa [3] = tested on: P. aeruginosa; set-up: method as in PMID 23917321; details: bacterial proteases, cultures of Gram-negative P. aeruginosa; cited from earlier work
P. aeruginosa [4] = experiment: Heat stability (MIC assay after heating); format: physicochemical, Pseudomonas aeruginosa; details: 1 mg/mL in 10% PBS, 80 °C for 60 min vs room temperature; read-out MIC assay against P. aeruginosa; duplicates, N = 2, repeated with similar results
Experimental: Peptides were diluted to 1 mg/mL in sterile 10% PBS (1 part PBS, 9 parts dH2O) and heated for 60 min in a 0.5 mL microcentrifuge tube in a water bath set at 80 °C. Control samples were similarly incubated at room temperature. The samples were used for MIC assays, as described below.
as §2
Figure 1 Heat stability of GL13K peptides. LGL13K (circles) or DGL13K (boxes) were incubated for 1 h at room temperature (open symbols) or 80 °C (closed symbols) and then used for an MIC assay against P. aeruginosa. Duplicate samples were tested and plotted as mean ± range, N = 2. The experiment was repeated with similar results.

[5] = aqueous stock 10 mg/mL in dH2O or 0.01% acetic acid, 4 °C, more than 2 years; cited from earlier work
From the text: Peptides are typically considered inherently unstable in aqueous solutions [57].

Enterococcus faecalis = details: cited from earlier work
From the text: Proteolytic processing of AMPs has been cited as a concern for their development for clinical use. DGL13K was originally designed to overcome proteolytic processing of the L-enantiomer in cultures of P. aeruginosa.

[6] = cited from earlier work
[7] = Table 3, Xen36, Todd-Hewitt Broth, median MIC of 2–4 independent experiments, values outside tested range set at 1000 µg/mL
[8] = Table 2, Xen41, 10^5 CFU/mL in Mueller-Hinton Broth, median MIC of 1–3 independent experiments
[9] = Table 2, Xen36, 10^5 CFU/mL in Todd-Hewitt Broth, median MIC of 1–3 independent experiments
[10] = Table 3, Xen41, Mueller-Hinton Broth, median MIC of 2–4 independent experiments, values outside tested range set at 1000 µg/mL

CC[C@@H](C)[C@@H](NC(=O)[C@@H](CCCNC(=N)N)NC(=O)CN)C(=O)N[C@@H](C(=O)N[C@H](CCCNC(=N)N)C(=O)N[C@H](CC(C)C)C(=O)N[C@H](CCCNC(=N)N)C(=O)N[C@H](C)C(=O)N[C@H](CO)C(=O)N[C@H](CC(C)C)C(=O)N[C@H](CCCNC(=N)N)C(=O)N[C@H](CC(C)C)C(=O)N[C@H](CC(C)C)C(N)=O)[C@H](C)CC [DGL13R] (H-G[dR][dI][dI][dR][dL][dR][dA][dS][dL][dR][dL][dL]-NH2; N-terminus assumed)
Antibacterial activity against S. aureus compared with unmodified peptide (in words) [1]: not different from the parent peptide | MIC S. aureus [1, 7]: 2.6 µg/mL

GKIIKLKASLKLL-NH2 [LGL13K]
MIC P. aeruginosa [2, 8]: 10.4 µg/mL | MIC S. aureus [1, 9]: 83.3 µg/mL | HC50 (peptide concentration leading to 50% lysis of red blood cells) (human red blood cells): 500 to 1000 µg/mL | Proteolytic degradation in cultures of P. aeruginosa (P. aeruginosa [3]): susceptible to bacterial proteases

CC[C@@H](C)[C@H](NC(=O)[C@H](CCCCN)NC(=O)CN)C(=O)N[C@H](C(=O)N[C@@H](CCCCN)C(=O)N[C@@H](CC(C)C)C(=O)N[C@@H](CCCCN)C(=O)N[C@@H](C)C(=O)N[C@@H](CO)C(=O)N[C@@H](CC(C)C)C(=O)N[C@@H](CCCCN)C(=O)N[C@@H](CC(C)C)C(=O)N[C@@H](CC(C)C)C(N)=O)[C@H](C)CC [L-allo-Ile GL13K] (H-GK[aIle][aIle]KLKASLKLL-NH2; N-terminus assumed)
MIC P. aeruginosa [2, 8]: 10.4 µg/mL | MIC S. aureus [1, 9]: 83.3 µg/mL

GKIIKLKASLKLL-NH2 [PEG-LGL13K, N-terminally PEGylated version of LGL13K]
Fold increase in MIC for P. aeruginosa versus unmodified parent peptide ([2]; compared with DGL13K (or LGL13K for PEG-LGL13K), Figure 4 / Table 3): three-fold | Fold increase in MIC for S. aureus versus unmodified parent peptide ([1]; compared with DGL13K (or LGL13K for PEG-LGL13K), Figure 4): two

CC[C@@H](C)[C@@H](NC(=O)[C@@H](CCCCN)NC(=O)CN)C(=O)N[C@@H](C(=O)N[C@H](CCCCN)C(=O)N[C@H](CC(C)C)C(=O)N[C@H](CCCCN)C(=O)N[C@H](C)C(=O)N[C@H](CO)C(=O)N[C@H](CC(C)C)C(=O)N[C@H](CCCCN)C(=O)N[C@H](CC(C)C)C(=O)N[C@H](CC(C)C)C(N)=O)[C@H](C)CC [DGL13K] (H-G[dK][dI][dI][dK][dL][dK][dA][dS][dL][dK][dL][dL]-NH2; N-terminus assumed)
MIC P. aeruginosa [2, 8]: 7.8 µg/mL | MIC P. aeruginosa [2, 10]: 5.2 µg/mL | MIC S. aureus [1, 9]: 2.6 µg/mL | MIC S. aureus [1, 7]: 1.3 µg/mL | Loss of activity after heating of solution (P. aeruginosa [4]): no loss of activity | HC50 (peptide concentration leading to 50% lysis of red blood cells) (human red blood cells): 500 to 1000 µg/mL | Loss of antibacterial activity of aqueous solution after storage [5]: did not lose antibacterial activity | Proteolytic degradation in cultures of P. aeruginosa (P. aeruginosa [3]): not degraded | Proteolytic degradation in cultures of Enterococcus faecalis (Enterococcus faecalis): resists proteolytic degradation | stability of aqueous solution (no loss of antibacterial activity) [6]: > 2 years

CC[C@H](C)[C@@H](NC(=O)[C@@H](CCCCN)NC(=O)CN)C(=O)N[C@@H](C(=O)N[C@H](CCCCN)C(=O)N[C@H](CC(C)C)C(=O)N[C@H](CCCCN)C(=O)N[C@H](C)C(=O)N[C@H](CO)C(=O)N[C@H](CC(C)C)C(=O)N[C@H](CCCCN)C(=O)N[C@H](CC(C)C)C(=O)N[C@H](CC(C)C)C(N)=O)[C@@H](C)CC [D-allo-Ile GL13K] (H-G[dK][d(aIle)][d(aIle)][dK][dL][dK][dA][dS][dL][dK][dL][dL]-NH2; N-terminus assumed)
MIC P. aeruginosa [2, 8]: 5.2 µg/mL | MIC S. aureus [1, 9]: 2.6 µg/mL

CC[C@@H](C)[C@@H](NC(=O)[C@@H](Cc1c[nH]c2ccccc12)NC(=O)[C@@H](CCCCN)NC(=O)[C@@H](CCCCN)NC(=O)CN)C(=O)N[C@H](CCCCN)C(=O)N[C@H](CCCCN)C(=O)N[C@H](C)C(=O)N[C@H](CO)C(=O)N[C@H](CCCCN)C(=O)N[C@H](Cc1c[nH]c2ccccc12)C(=O)N[C@H](CC(C)C)C(=O)O [DGL12W] (H-G[dK][dK][dW][dI][dK][dK][dA][dS][dK][dW][dL]-OH; N-terminus assumed)
MIC P. aeruginosa [2, 10]: 13 µg/mL | Antibacterial activity against S. aureus compared with unmodified peptide (in words) [1]: lost its activity
